# Test system: MV-4-11 cells
# Test: Gene expression microarray analysis (Affymetrix PrimeView) and GSEA
# Type: cell-based, human
# Design: RFU PODN (11730768_x_at) / Fold change /veh PODN (11730768_x_at) / RFU LINC00158 (11744669_a_at) / Fold change /veh LINC00158 (11744669_a_at) / RFU DUSP10 (11751237_a_at) / Fold change /veh DUSP10 (11751237_a_at) / RFU ID3 (11757404_x_at) / Fold change /veh ID3 (11757404_x_at) / RFU PLEKHG5 (11737974_s_at) / Fold change /veh PLEKHG5 (11737974_s_at) / RFU LRRC4B (11730491_at) / Fold change /veh LRRC4B (11730491_at) / RFU GIMAP4 (11747438_a_at) / Fold change /veh GIMAP4 (11747438_a_at) / RFU KRT8 (11758183_x_at) / Fold change /veh KRT8 (11758183_x_at) / RFU CNN1 (11734310_a_at) / Fold change /veh CNN1 (11734310_a_at) / RFU VPS37D (11726825_at) / Fold change /veh VPS37D (11726825_at) / RFU C10orf10 (11716522_x_at) / Fold change /veh C10orf10 (11716522_x_at) / RFU KIR2DL2 /// KIR2DL4 /// KIR2DL5A /// KIR2DL5B /// KIR2DS1 /// KIR2DS2 /// KIR2DS3 /// KIR2DS4 /// KIR3DL3 /// KIR3DL3 /// KIR3DS1 (11738374_at) / Fold change /veh KIR2DL2 /// KIR2DL4 /// KIR2DL5A /// KIR2DL5B /// KIR2DS1 /// KIR2DS2 /// KIR2DS3 /// KIR2DS4 /// KIR3DL3 /// KIR3DL3 /// KIR3DS1 (11738374_at) / RFU C1QL1 (11718748_at) / Fold change /veh C1QL1 (11718748_at) / RFU TMPRSS4 (11747572_a_at) / Fold change /veh TMPRSS4 (11747572_a_at) / RFU HAMP (11756126_x_at) / Fold change /veh HAMP (11756126_x_at) / RFU RNFT2 (11725882_a_at) / Fold change /veh RNFT2 (11725882_a_at) / RFU NR4A2 (11747474_a_at) / Fold change /veh NR4A2 (11747474_a_at) / RFU ABCC12 (11746883_a_at) / Fold change /veh ABCC12 (11746883_a_at) / RFU TMEM136 (11760407_x_at) / Fold change /veh TMEM136 (11760407_x_at) / RFU CLDN22 /// WWC2 (11732394_at) / Fold change /veh CLDN22 /// WWC2 (11732394_at) / RFU HLA-DPB1 (11760878_x_at) / Fold change /veh HLA-DPB1 (11760878_x_at) / RFU SPINT1 (11716480_a_at) / Fold change /veh SPINT1 (11716480_a_at) / RFU GAP43 (11754022_s_at) / Fold change /veh GAP43 (11754022_s_at) / RFU A4GNT (11735810_at) / Fold change /veh A4GNT (11735810_at) / RFU PRB3 (11715151_x_at) / Fold change /veh PRB3 (11715151_x_at) / RFU TUBB4B (11761932_at) / Fold change /veh TUBB4B (11761932_at) / RFU CAPN14 (11732068_a_at) / Fold change /veh CAPN14 (11732068_a_at) / RFU TMCC2 (11721928_a_at) / Fold change /veh TMCC2 (11721928_a_at) / RFU IRGQ (11745062_a_at) / Fold change /veh IRGQ (11745062_a_at) / RFU FAM174B (11720279_a_at) / Fold change /veh FAM174B (11720279_a_at) / RFU TMPRSS4 (11748680_a_at) / Fold change /veh TMPRSS4 (11748680_a_at) / RFU FAM212B (11763350_a_at) / Fold change /veh FAM212B (11763350_a_at) / RFU PLEKHG5 (11743358_a_at) / Fold change /veh PLEKHG5 (11743358_a_at) / RFU ZSCAN30 (11745921_a_at) / Fold change /veh ZSCAN30 (11745921_a_at) / RFU CMKLR1 (11741424_a_at) / Fold change /veh CMKLR1 (11741424_a_at) / RFU LOC101060620 /// MAPK8IP1 (11723275_at) / Fold change /veh LOC101060620 /// MAPK8IP1 (11723275_at) / RFU SPTSSB (11747773_x_at) / Fold change /veh SPTSSB (11747773_x_at) / RFU PRSS12 (11739890_at) / Fold change /veh PRSS12 (11739890_at) / RFU BIN1 (11741810_x_at) / Fold change /veh BIN1 (11741810_x_at) / RFU WNT11 (11732464_a_at) / Fold change /veh WNT11 (11732464_a_at) / RFU C10orf10 (11716521_a_at) / Fold change /veh C10orf10 (11716521_a_at) / RFU C5orf56 (11738089_at) / Fold change /veh C5orf56 (11738089_at) / RFU CYB561 (11721691_x_at) / Fold change /veh CYB561 (11721691_x_at) / RFU ANKRD19P (11752326_a_at) / Fold change /veh ANKRD19P (11752326_a_at) / RFU OR2T12 /// OR2T33 /// OR2T8 (11738714_s_at) / Fold change /veh OR2T12 /// OR2T33 /// OR2T8 (11738714_s_at) / RFU VCAN (11748164_a_at) / Fold change /veh VCAN (11748164_a_at) / RFU JSRP1 (11732532_at) / Fold change /veh JSRP1 (11732532_at) / RFU KRTAP10-11 (11738290_x_at) / Fold change /veh KRTAP10-11 (11738290_x_at) / RFU MYO3A (11730013_a_at) / Fold change /veh MYO3A (11730013_a_at) / RFU EBF3 (11725865_a_at) / Fold change /veh EBF3 (11725865_a_at) / RFU CAMK2N1 (11719241_x_at) / Fold change /veh CAMK2N1 (11719241_x_at) / RFU C5orf56 (11738088_a_at) / Fold change /veh C5orf56 (11738088_a_at) / RFU OLFML3 (11715873_a_at) / Fold change /veh OLFML3 (11715873_a_at) / RFU LOC100653217 /// NTM (11731650_a_at) / Fold change /veh LOC100653217 /// NTM (11731650_a_at) / RFU MAPK11 (11762145_a_at) / Fold change /veh MAPK11 (11762145_a_at) / RFU FIZ1 (11724087_x_at) / Fold change /veh FIZ1 (11724087_x_at) / RFU OASL (11726364_x_at) / Fold change /veh OASL (11726364_x_at) / RFU SOX15 (11748057_x_at) / Fold change /veh SOX15 (11748057_x_at) / RFU CD79A (11719716_a_at) / Fold change /veh CD79A (11719716_a_at) / RFU HIST1H1D (11736915_at) / Fold change /veh HIST1H1D (11736915_at) / RFU CASKIN2 (11723855_a_at) / Fold change /veh CASKIN2 (11723855_a_at) / RFU LOC730098 (11760151_x_at) / Fold change /veh LOC730098 (11760151_x_at) / RFU OR4N2 (11742367_at) / Fold change /veh OR4N2 (11742367_at) / RFU PRRT2 (11749266_a_at) / Fold change /veh PRRT2 (11749266_a_at) / RFU SNX32 (11753110_a_at) / Fold change /veh SNX32 (11753110_a_at) / RFU CDHR5 (11726645_a_at) / Fold change /veh CDHR5 (11726645_a_at) / RFU RCAN1 (11760418_a_at) / Fold change /veh RCAN1 (11760418_a_at) / RFU FAM167A (11723789_a_at) / Fold change /veh FAM167A (11723789_a_at) / RFU FAM26E (11764081_at) / Fold change /veh FAM26E (11764081_at) / RFU ISYNA1 (11749810_s_at) / Fold change /veh ISYNA1 (11749810_s_at) / RFU ACY1 (11761880_at) / Fold change /veh ACY1 (11761880_at) / RFU 11764098_at / Fold change /veh 11764098_at / RFU SAMD14 (11745864_x_at) / Fold change /veh SAMD14 (11745864_x_at) / RFU NPB (11741838_a_at) / Fold change /veh NPB (11741838_a_at) / RFU TMPRSS6 (11731388_a_at) / Fold change /veh TMPRSS6 (11731388_a_at) / RFU KRTAP10-2 (11738614_at) / Fold change /veh KRTAP10-2 (11738614_at) / RFU ARHGAP8 /// PRR5-ARHGAP8 (11727945_x_at) / Fold change /veh ARHGAP8 /// PRR5-ARHGAP8 (11727945_x_at) / RFU KRTAP5-7 /// NADSYN1 (11734609_at) / Fold change /veh KRTAP5-7 /// NADSYN1 (11734609_at) / RFU RASL12 (11751679_a_at) / Fold change /veh RASL12 (11751679_a_at) / RFU CDKN2B (11736163_a_at) / Fold change /veh CDKN2B (11736163_a_at) / RFU PRF1 (11729649_at) / Fold change /veh PRF1 (11729649_at) / RFU, ZNF638 /// ZNF638-IT1 / Fold change vs veh, ZNF638 /// ZNF638-IT1 / RFU, PANK3 / Fold change vs veh, PANK3 / RFU, SH3YL1 / Fold change vs veh, SH3YL1 / RFU, ZEB2 / Fold change vs veh, ZEB2 / RFU, NRIP1 / Fold change vs veh, NRIP1 / RFU, PTTG1IP / Fold change vs veh, PTTG1IP / RFU, CAPN2 / Fold change vs veh, CAPN2 / RFU, MED14 / Fold change vs veh, MED14 / RFU, SNORA58 / Fold change vs veh, SNORA58 / RFU, C1orf63 / Fold change vs veh, C1orf63 / RFU, LRRFIP1 / Fold change vs veh, LRRFIP1 / RFU, NDUFAF7 / Fold change vs veh, NDUFAF7 / RFU, SLC12A2 / Fold change vs veh, SLC12A2 / RFU, IBTK / Fold change vs veh, IBTK / RFU, ESF1 / Fold change vs veh, ESF1 / Fold change vs veh, TMEM50B / RFU, TAOK1 / Fold change vs veh, TAOK1 / RFU, ACBD3 / Fold change vs veh, ACBD3 / RFU, TMA16 / Fold change vs veh, TMA16 / RFU, RWDD3 / Fold change vs veh, RWDD3 / RFU, BCAT1 / Fold change vs veh, BCAT1 / RFU, EDEM3 / Fold change vs veh, EDEM3 / RFU, TMEM33 / Fold change vs veh, TMEM33 / RFU, WDR75 / Fold change vs veh, WDR75 / RFU, AHCTF1 / Fold change vs veh, AHCTF1 / RFU, TFRC / Fold change vs veh, TFRC / RFU, ZDHHC17 / Fold change vs veh, ZDHHC17 / RFU, NOM1 / Fold change vs veh, NOM1 / RFU, ARL8B / Fold change vs veh, ARL8B / RFU, ZBTB11 / Fold change vs veh, ZBTB11 / RFU, TAMM41 / Fold change vs veh, TAMM41 / RFU, KIAA1704 /// LOC100996395 / Fold change vs veh, KIAA1704 /// LOC100996395 / RFU, ING1 / Fold change vs veh, ING1 / RFU, TRMT61B / Fold change vs veh, TRMT61B / RFU, FUBP3 / Fold change vs veh, FUBP3 / RFU, TP53 / Fold change vs veh, TP53 / RFU, TNKS2 / Fold change vs veh, TNKS2 / RFU, ZFP14 / Fold change vs veh, ZFP14 / RFU, ACTR2 / Fold change vs veh, ACTR2 / RFU, PPP3R1 / Fold change vs veh, PPP3R1 / RFU, PIK3R1 / Fold change vs veh, PIK3R1 / RFU, HNRNPA1 / Fold change vs veh, HNRNPA1 / RFU, RNF170 / Fold change vs veh, RNF170 / RFU, ZNF28 / Fold change vs veh, ZNF28 / RFU, RNGTT / Fold change vs veh, RNGTT / RFU, OGT / Fold change vs veh, OGT / RFU, BRD1 / Fold change vs veh, BRD1 / RFU, MARS / Fold change vs veh, MARS / RFU, ZNF655 / Fold change vs veh, ZNF655 / RFU, FAHD1 / Fold change vs veh, FAHD1 / RFU, BDP1 / Fold change vs veh, BDP1 / RFU, LRRCC1 / Fold change vs veh, LRRCC1 / RFU, ARID1A / Fold change vs veh, ARID1A / RFU, ZNF146 / Fold change vs veh, ZNF146 / RFU, ZNF330 / Fold change vs veh, ZNF330 / RFU, GPN3 / Fold change vs veh, GPN3 / RFU, C9orf123 / Fold change vs veh, C9orf123 / RFU, N4BP2L2 / Fold change vs veh, N4BP2L2 / RFU, ARFIP1 / Fold change vs veh, ARFIP1 / RFU, FAM179B / Fold change vs veh, FAM179B / RFU, BCL10 / Fold change vs veh, BCL10 / RFU, UHRF1BP1L / Fold change vs veh, UHRF1BP1L / RFU, BET1 / Fold change vs veh, BET1 / RFU, CNOT2 / Fold change vs veh, CNOT2 / RFU, ZNF268 / Fold change vs veh, ZNF268 / Fold change vs veh, ZNF507 / RFU, DGCR2 / Fold change vs veh, DGCR2 / RFU, WDSUB1 / Fold change vs veh, WDSUB1 / Fold change vs veh, HSP90B1 /// MIR3652 / RFU, ADSS / Fold change vs veh, ADSS / RFU, GK / Fold change vs veh, GK / RFU, ZNF148 / Fold change vs veh, ZNF148 / RFU, TAF9 / Fold change vs veh, TAF9 / RFU, SLC1A5 / Fold change vs veh, SLC1A5 / RFU, SLMO2 / Fold change vs veh, SLMO2 / RFU, ABCC4 / Fold change vs veh, ABCC4 / RFU, LOC101060439 /// RAP1B / Fold change vs veh, LOC101060439 /// RAP1B / RFU, RFX7 / Fold change vs veh, RFX7 / RFU, GTPBP10 / Fold change vs veh, GTPBP10 / RFU, CNEP1R1 / Fold change vs veh, CNEP1R1 / RFU, BIVM-ERCC5 /// ERCC5 / Fold change vs veh, BIVM-ERCC5 /// ERCC5 / RFU, ILF3 / Fold change vs veh, ILF3 / RFU 11762660_at / Fold change /veh 11762660_at / RFU VCAN (11757783_s_at) / Fold change /veh VCAN (11757783_s_at) / RFU DDX43 (11728927_at) / Fold change /veh DDX43 (11728927_at) / RFU KRT8 (11758188_x_at) / Fold change /veh KRT8 (11758188_x_at) / RFU NKD1 (11759106_at) / Fold change /veh NKD1 (11759106_at) / RFU SRD5A1 (11742802_a_at) / Fold change /veh SRD5A1 (11742802_a_at) / RFU TPSAB1 /// TPSB2 (11721975_s_at) / Fold change /veh TPSAB1 /// TPSB2 (11721975_s_at) / RFU GSTM3 (11746129_a_at) / Fold change /veh GSTM3 (11746129_a_at) / RFU IL23R (11737362_x_at) / Fold change /veh IL23R (11737362_x_at) / RFU TMEM51 (11727254_a_at) / Fold change /veh TMEM51 (11727254_a_at) / RFU PIWIL2 (11732686_x_at) / Fold change /veh PIWIL2 (11732686_x_at) / RFU ORM1 (11744905_x_at) / Fold change /veh ORM1 (11744905_x_at) / RFU CCDC152 (11743942_at) / Fold change /veh CCDC152 (11743942_at) / RFU ECM1 (11717891_a_at) / Fold change /veh ECM1 (11717891_a_at) / RFU IL23R (11748794_a_at) / Fold change /veh IL23R (11748794_a_at) / RFU TNFAIP8L3 (11732012_x_at) / Fold change /veh TNFAIP8L3 (11732012_x_at) / RFU MBOAT4 (11741988_at) / Fold change /veh MBOAT4 (11741988_at) / RFU 11764193_at / Fold change /veh 11764193_at / RFU TMEM53 (11763286_at) / Fold change /veh TMEM53 (11763286_at) / RFU MAGEB2 (11727129_at) / Fold change /veh MAGEB2 (11727129_at) / RFU TMEM200A (11744735_a_at) / Fold change /veh TMEM200A (11744735_a_at) / RFU CCDC152 (11751479_a_at) / Fold change /veh CCDC152 (11751479_a_at) / RFU FAM211A (11726209_a_at) / Fold change /veh FAM211A (11726209_a_at) / RFU RGS16 (11746705_a_at) / Fold change /veh RGS16 (11746705_a_at) / RFU VCAN (11755009_s_at) / Fold change /veh VCAN (11755009_s_at) / RFU RHOB (11743442_s_at) / Fold change /veh RHOB (11743442_s_at) / RFU RGS16 (11720943_a_at) / Fold change /veh RGS16 (11720943_a_at) / RFU RGS16 (11720944_at) / Fold change /veh RGS16 (11720944_at) / RFU, VPS4B / Fold change vs veh, VPS4B / RFU, CREB1 / Fold change vs veh, CREB1 / RFU, DNAJC13 / Fold change vs veh, DNAJC13 / RFU, GNAQ / Fold change vs veh, GNAQ / RFU, CDK5R1 / Fold change vs veh, CDK5R1 / RFU, ZRANB3 / Fold change vs veh, ZRANB3 / RFU, CUL4A / Fold change vs veh, CUL4A / RFU, CCNY / Fold change vs veh, CCNY / RFU, UFL1 / Fold change vs veh, UFL1 / RFU, COG3 / Fold change vs veh, COG3 / RFU, DIAPH2 / Fold change vs veh, DIAPH2 / RFU, SKA2 / Fold change vs veh, SKA2 / RFU, AFF3 / Fold change vs veh, AFF3 / RFU, LMF1 / Fold change vs veh, LMF1 / RFU, IPO11 / Fold change vs veh, IPO11 / RFU, DFFB / Fold change vs veh, DFFB / RFU, FOXP1 / Fold change vs veh, FOXP1 / RFU, CARD8 / Fold change vs veh, CARD8 / RFU, STRN3 / Fold change vs veh, STRN3 / RFU, ADK / Fold change vs veh, ADK / RFU, RASSF2 / Fold change vs veh, RASSF2 / RFU, WIPF1 / Fold change vs veh, WIPF1 / RFU, LARP1B / Fold change vs veh, LARP1B / RFU, RASA1 / Fold change vs veh, RASA1 / RFU, RB1 / Fold change vs veh, RB1 / RFU, PPFIA1 / Fold change vs veh, PPFIA1 / RFU, MAT2A / Fold change vs veh, MAT2A / RFU, CCT5 / Fold change vs veh, CCT5 / RFU, WDR92 / Fold change vs veh, WDR92 / RFU, CUX1 / Fold change vs veh, CUX1 / RFU, TTC7A / Fold change vs veh, TTC7A / RFU, TMEM135 / Fold change vs veh, TMEM135 / RFU, DEPTOR / Fold change vs veh, DEPTOR / RFU, CPM / Fold change vs veh, CPM / RFU, DNAJB6 / Fold change vs veh, DNAJB6 / RFU, CACNA2D3 / Fold change vs veh, CACNA2D3 / RFU, DTX4 / Fold change vs veh, DTX4 / RFU, TFCP2 / Fold change vs veh, TFCP2 / RFU, GMCL1 /// GMCL1P1 / Fold change vs veh, GMCL1 /// GMCL1P1 / RFU, AEBP2 / Fold change vs veh, AEBP2 / RFU, SNHG1 /// SNORD22 /// SNORD25 /// SNORD26 /// SNORD27 /// SNORD28 /// SNORD29 /// SNORD31 / Fold change vs veh, SNHG1 /// SNORD22 /// SNORD25 /// SNORD26 /// SNORD27 /// SNORD28 /// SNORD29 /// SNORD31 / Fold change (Aza/veh), C12orf56 (ProbeSet 11735607_a_at) / Fold change (ACY-1035/veh), C12orf56 (ProbeSet 11735607_a_at) / Fold change (Aza/veh), FGFR1OP (ProbeSet 11751329_s_at) / Fold change (ACY-1035/veh), FGFR1OP (ProbeSet 11751329_s_at) / Fold change (Aza/veh), VPS36 (ProbeSet 11739960_a_at) / Fold change (ACY-1035/veh), VPS36 (ProbeSet 11739960_a_at) / RFU SYPL1 (11715823_x_at) / Fold change /veh SYPL1 (11715823_x_at) / RFU IGFBP7 (11715501_s_at) / Fold change /veh IGFBP7 (11715501_s_at) / RFU REEP3 (11722064_at) / Fold change /veh REEP3 (11722064_at) / RFU IGLL1 (11728026_x_at) / Fold change /veh IGLL1 (11728026_x_at): dose or concentration left out as unconfirmed
# Conditions: MV-4-11 cells, 48 hours
compound,measurement,value
Nc1ccc(-c2cccs2)cc1NC(=O)c1ccc2c(c1)cc(C1CC1)n2CCN1CCOCC1 [ACY-1035],Fold change /veh FAM212B (11763350_a_at),1.09
